Test results: patent publication US20170089921A1, “EXPRESSION OF VOLTAGE-GATED ION CHANNELS IN CILIATES” (priority 2014, published 2017)
No end group written: not given here.

Assays:
Nav1.8 = Nav1.8 (Homo sapiens, UniProt Q9Y5Y9); format: biochemical
Kv1.3 [1] = target: T1, Kv1.3 (Homo sapiens, UniProt P22001); test: Fluorescent toxin labeling of fixed Kv1.3 expressing Tetrahymena cells (confocal microscopy); format: binding; details: 10 nM, 30 minutes at RT
T1 construct: expressed in transfected cells; host or cells: Tetrahymena thermophila (transformed, CdCl2-induced, paraformaldehyde-fixed)
T1 sequence (P22001 whole entry): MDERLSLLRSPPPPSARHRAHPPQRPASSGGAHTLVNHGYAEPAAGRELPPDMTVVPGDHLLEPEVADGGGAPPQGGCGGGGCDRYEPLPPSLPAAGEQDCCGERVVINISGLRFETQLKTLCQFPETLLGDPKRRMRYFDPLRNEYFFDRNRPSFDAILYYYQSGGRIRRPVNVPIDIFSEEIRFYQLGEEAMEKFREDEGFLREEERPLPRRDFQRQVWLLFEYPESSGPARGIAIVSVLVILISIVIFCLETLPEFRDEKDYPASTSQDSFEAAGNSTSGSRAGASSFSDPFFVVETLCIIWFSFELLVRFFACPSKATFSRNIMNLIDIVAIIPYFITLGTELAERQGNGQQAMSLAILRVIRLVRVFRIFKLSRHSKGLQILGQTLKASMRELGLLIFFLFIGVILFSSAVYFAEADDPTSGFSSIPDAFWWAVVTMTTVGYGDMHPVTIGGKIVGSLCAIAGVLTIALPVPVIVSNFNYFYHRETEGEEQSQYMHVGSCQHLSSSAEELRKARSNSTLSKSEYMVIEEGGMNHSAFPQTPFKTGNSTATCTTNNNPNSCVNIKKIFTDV

[2] = tested on: Wild-type (WT) Tetrahymena cells; test: Fluorescent toxin labeling of fixed wild-type control Tetrahymena cells; format: binding, Tetrahymena thermophila; details: 10 nM, 30 minutes at RT
Kv1.3 [3] = target: T1, Kv1.3; test: Competition of ShK-TAMRA labeling of Kv1.3 expressing cells by non-labeled toxins; format: binding; details: 100 nM (saturating) toxin co-incubated with 10 nM ShK-TAMRA

Chain of Nav1.8 (Q9Y5Y9 whole entry): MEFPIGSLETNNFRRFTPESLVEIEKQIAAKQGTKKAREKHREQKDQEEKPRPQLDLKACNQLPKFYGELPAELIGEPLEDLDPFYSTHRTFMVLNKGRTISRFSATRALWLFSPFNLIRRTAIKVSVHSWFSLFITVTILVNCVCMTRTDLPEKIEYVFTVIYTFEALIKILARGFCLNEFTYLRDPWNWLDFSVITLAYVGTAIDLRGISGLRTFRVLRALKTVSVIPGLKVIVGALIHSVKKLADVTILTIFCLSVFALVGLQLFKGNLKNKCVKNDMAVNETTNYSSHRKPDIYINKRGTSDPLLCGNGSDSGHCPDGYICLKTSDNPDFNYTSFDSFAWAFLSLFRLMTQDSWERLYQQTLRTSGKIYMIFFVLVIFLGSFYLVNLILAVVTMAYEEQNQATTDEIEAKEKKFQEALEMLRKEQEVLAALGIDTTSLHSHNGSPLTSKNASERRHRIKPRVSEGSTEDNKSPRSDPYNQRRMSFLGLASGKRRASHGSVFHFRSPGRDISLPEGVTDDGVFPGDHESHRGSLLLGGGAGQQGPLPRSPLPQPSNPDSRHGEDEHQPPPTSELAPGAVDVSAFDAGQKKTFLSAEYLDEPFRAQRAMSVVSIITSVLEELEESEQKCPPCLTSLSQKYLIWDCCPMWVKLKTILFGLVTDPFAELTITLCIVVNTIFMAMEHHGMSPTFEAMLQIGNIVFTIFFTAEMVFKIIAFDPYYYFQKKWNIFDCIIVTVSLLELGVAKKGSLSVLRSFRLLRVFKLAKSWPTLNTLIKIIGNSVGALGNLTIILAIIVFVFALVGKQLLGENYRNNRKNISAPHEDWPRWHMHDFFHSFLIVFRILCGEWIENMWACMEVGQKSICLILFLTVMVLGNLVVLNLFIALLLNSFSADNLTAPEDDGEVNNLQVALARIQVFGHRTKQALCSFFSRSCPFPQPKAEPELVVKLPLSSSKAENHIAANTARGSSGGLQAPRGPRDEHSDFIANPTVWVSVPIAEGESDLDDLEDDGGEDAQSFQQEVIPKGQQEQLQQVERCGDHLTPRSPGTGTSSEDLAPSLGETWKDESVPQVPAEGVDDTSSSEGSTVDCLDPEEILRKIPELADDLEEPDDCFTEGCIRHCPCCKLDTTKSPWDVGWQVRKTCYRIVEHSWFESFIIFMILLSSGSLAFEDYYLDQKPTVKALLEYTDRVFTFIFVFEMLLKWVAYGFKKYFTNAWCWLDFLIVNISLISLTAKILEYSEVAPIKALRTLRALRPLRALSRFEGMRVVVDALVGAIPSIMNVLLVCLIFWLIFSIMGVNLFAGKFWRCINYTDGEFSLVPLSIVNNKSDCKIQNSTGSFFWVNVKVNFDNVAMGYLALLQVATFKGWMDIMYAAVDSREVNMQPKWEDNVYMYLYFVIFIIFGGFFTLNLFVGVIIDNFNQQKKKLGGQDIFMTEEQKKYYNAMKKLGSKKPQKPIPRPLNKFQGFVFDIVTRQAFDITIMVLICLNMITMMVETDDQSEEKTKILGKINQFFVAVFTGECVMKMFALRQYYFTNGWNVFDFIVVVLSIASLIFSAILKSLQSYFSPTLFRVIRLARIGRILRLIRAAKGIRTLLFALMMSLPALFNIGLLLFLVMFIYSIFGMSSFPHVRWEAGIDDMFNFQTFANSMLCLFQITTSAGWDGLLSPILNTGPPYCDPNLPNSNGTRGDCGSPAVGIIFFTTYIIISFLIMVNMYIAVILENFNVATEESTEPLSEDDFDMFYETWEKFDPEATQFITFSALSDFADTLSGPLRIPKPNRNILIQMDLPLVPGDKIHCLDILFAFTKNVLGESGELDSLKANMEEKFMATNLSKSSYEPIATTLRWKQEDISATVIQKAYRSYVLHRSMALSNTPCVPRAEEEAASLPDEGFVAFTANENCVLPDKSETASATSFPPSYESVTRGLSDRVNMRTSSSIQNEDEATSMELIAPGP

Compound	binding to Kv1.3 expressing cells (cell surface labeling) (Kv1.3 [1])	labeling of WT cells [2]	competition with ShK-TAMRA binding (Kv1.3 [3])	further results
Cc1c[nH]c(C)c1C(=O)O[C@@H](C)C1=CC[C@@]23OCCN(C)C[C@@]12C[C@@H](O)[C@]12O[C@]4(O)CC[C@@]1(C)[C@H](CC=C32)C4 [BTX, batrachatoxin]				channel activity following addition of activator (Nav1.8; Nav1.8 proteoliposomes, 10× NaCl chemical gradient, 0 mV holding potential, no conductance before addition): channel activity was detected; conductances (Nav1.8; after addition of BTX, 10× NaCl chemical gradient, 0 mV holding potential): 2-3 pA
NC1=N[C@H](O)[C@H]2[C@H]3O[C@]4(O)O[C@@H]([C@@H](O)[C@@]2(N1)[C@@H]4O)[C@]3(O)CO [Tetrodotoxin]				channel activity following addition of blocker (Nav1.8): Activity was abolished
Agitoxin-2-TAMRA [AgTX-2-TAMRA]	bound to Kv1.3 expressing cells	No labeling		
Iberiotoxin (QFTDVDCSVSKECWSVCKDLFGVDRGKCMGKKCRCYQ; ends and bridges not checked; cysteine pairing not given here; UniProt P24663 1-37, looked up) [IbTX]			does not interfere with ShK-TAMRA binding	
Margatoxin (TIINVKCTSPKQCLPPCKAQFGQSAGAKCMNGKCKCYPH; ends and bridges not checked; cysteine pairing not given here; UniProt P40755 1-39, looked up) [MgTX]			competitive	
ShK-TAMRA	bound to Kv1.3 expressing cells	No labeling		
